Laboratory results taken from US9061994B1, “Materials and methods useful to induce vacuolization, cell death, or a combination thereof” (The University of Toledo, priority 2011, dated 2015).
Entries after “also recorded” stand apart in the source; their conditions may differ. Where two headings read alike, the source gives them in different places.

Experiments:
Format in all cases: cell-based, human
U251 glioblastoma cells [1] = test: Trypan blue dye-exclusion viability assay; details: for cell viability, in words: 10 μM, 2 days; for viability at 10 µM: Homo sapiens, U-251, 48 h, each compound at 10 μM for 2 days, mean ± SD of three cultures
Description: To directly compare the effects of different compounds on cell viability, the trypan blue dye-exclusion assay was utilized to distinguish live (unstained) from dead (blue) cells. U251 cells were seeded in 35 mm diameter dishes at a density of 100,000 cells/dish. Twenty-four hours later, test compounds were added in fresh medium at a final concentration of […] received an equivalent volume of vehicle (DMSO). […] At the end of the incubation, floating and adherent cells were combined and collected by centrifugation. Cells were washed with Hank's balanced salt solution (HBSS) and incubated with 0.2% trypan blue solution (Sigma, St. Louis, Mo.) for 5 min at room temperature. The percentage of dead cells was determined by light microscopy using a hemocytometer. Three separate cultures were assayed for each compound.
Cells were seeded in 35 mm dishes and treated for 48 h with compounds at a final concentration of […] blue dye-exclusion assays were performed as described in the methods. Values are the mean±SD of separate assays performed on three parallel cultures.

U251 glioblastoma cells [2] = test: Sulforhodamine B (SRB) growth inhibition assay; details: for GI50: Homo sapiens; for growth inhibitory (GI) activity, in words: 48 h SRB, Table 1, Table 2 (FIG. 64), FIG. 63
Description: Cells experiencing methuosis initially undergo extreme cytoplasmic vacuolization which can be readily assessed by phase contrast microscopy. As viability is compromised (usually between 24-48 h), the cells detach from the culture surface and lose membrane integrity. […] Although methuosis can occur in a broad spectrum of human tumor cell lines, SAR studies were carried out with U251 glioblastoma cells. Therefore, this cell line was used in the present evaluation.
Total protein in adherent cells was measured by the sulforhodamine B (SRB) colorimetric assay, following standard procedures for anticancer drug screening used by the U.S. National Cancer Institute. […] On the day after plating, four wells were assayed to establish a pre-drug (time-0) baseline. Test compounds were diluted as described above and added to the remaining wells. The medium and compounds were replenished after 24 hr. SRB assays were performed at a 48 h endpoint as described, using a SpectraMax Plus 384 plate reader (Molecular Devices, Sunnyvale, Calif.) to determine absorbance at 515 nm.
Cells were seeded in 96-well plates as described in the methods. After 24 h, each compound was added at the indicated concentrations and SRB assays were performed after an additional 48 h. Each point represents the mean±SD of values from four wells. The dotted line on each graph indicates the average absorbance of four wells sampled at time-0 (i.e., the time that the compounds were added).
The human U251 glioblastoma cell line was obtained from the DCT Tumor Repository (National Cancer Institute, Fredrick, Md.). […] All test compounds were dissolved in DMSO and serially diluted in DMSO so that the desired final drug concentrations could be achieved by making a 1/1000 dilution into the culture medium. One day after plating, four wells were assayed to establish a pre-drug (time-0) baseline. At the same time, fresh medium containing test compounds was added to the remaining wells. Control wells received DMSO alone. SRB assays were performed at a 48 h endpoint. To minimize the impact of potential variations in stability among the compounds, medium with test compound was replenished after the first 24 h.

U251 glioblastoma cells [3] = test: Cell morphology / vacuolization by phase-contrast microscopy
U251 glioblastoma cells [4] = test: SAR comparison of methuosis induction (vacuolization, MTT viability, colony formation) versus MIPP; details: 10 μM, morphology 24 h and 48 h, MTT 48 h, colony formation (FIGS. 36, 48)
Source text: Analogs based on the α,β-unsaturated ketone core were designed from Claisen-Schmidt condensations between indole-3-carboxaldehydes and aromatic ketones. Such aldol condensations are known to proceed well employing secondary amines as catalysts. Initially, the orientation of the pyridine nitrogen was investigated.

[5] = concentration not singled out ([…] and 10 μM or as in figure)

Molecule | viability at 10 µM (U251 glioblastoma cells [1]) [%] | GI50 (U251 glioblastoma cells [2]; U-251, 48 h, read-out: GI50) [µM] | cell morphology / vacuolization (U251 glioblastoma cells [3]; 10 μM) | methuosis-inducing activity compared with compound 2 (MIPP) (U251 glioblastoma cells [4]) | further results
CCCc1[nH]c2ccc(OC)cc2c1/C=C/C(=O)c1ccncc1 [107b, trans-3-(5-methoxy-2-propylindol-3-yl)-1-(4-pyridinyl)-2-propen-1-one] | 83.9 ± 2.3 | 15.3 | extensively vacuolated | – | cell viability, in words (U251 glioblastoma cells [1]): only minimally affected
COc1ccc2[nH]c(C(C)C)c(/C=C/C(=O)c3ccncc3)c2c1 [107c, trans-3-(2-isopropyl-5-methoxyindol-3-yl)-1-(4-pyridinyl)-2-propen-1-one] | 78.8 ± 1.1 | > 20 | extensively vacuolated | – | cell viability, in words (U251 glioblastoma cells [1]): only minimally affected
COc1ccc2[nH]c(CC(C)C)c(/C=C/C(=O)c3ccncc3)c2c1 [107d, trans-3-(2-isobutyl-5-methoxyindol-3-yl)-1-(4-pyridinyl)-2-propen-1-one] | 87.4 ± 1.5 | 16.6 | extensively vacuolated | – | cell viability, in words (U251 glioblastoma cells [1]): only minimally affected
CCCCOc1ccc2[nH]c(C)c(/C=C/C(=O)c3ccncc3)c2c1 [402d, trans-3-(5-butoxy-2-methylindole-3-yl)-1-(4-pyridinyl)-2-propen-1-one] | – | – | – | – | growth inhibitory (GI) activity, in words (U251 glioblastoma cells [2]; U251): markedly reduced; also recorded: complete lack of GI activity; cell morphology / vacuolization (U251 glioblastoma cells [3]; [5]): produced much fewer and smaller vacuoles and had little effect on cell density
Cc1[nH]c2ccc(N)cc2c1/C=C/C(=O)c1ccncc1 [402g, trans-3-(5-amino-2-methylindol-3-yl)-1-(4-pyridinyl)-2-propen-1-one] | – | – | did cause vacuolization after 48 h | – | growth inhibitory (GI) activity, in words (U251 glioblastoma cells [2]; U251): no GI activity in the concentration range tested
NCc1ccc2[nH]cc(/C=C/C(=O)c3ccncc3)c2c1 [402i, trans-3-(5-aminomethylindol-3-yl)-1-(4-pyridinyl)-2-propen-1-one] | – | – | – | – | growth inhibitory (GI) activity, in words (U251 glioblastoma cells [2]; U251): completely inactive in both growth inhibition and vacuolization assays; cell morphology / vacuolization (U251 glioblastoma cells [3]; [5]): completely inactive in both growth inhibition and vacuolization assays
O=C(/C=C/c1c[nH]c2ccccc12)c1ccccc1 [compound 9, trans-3-(1H-indol-3-yl)-1-phenyl-2-propen-1-one] | – | – | – | relatively ineffective at inducing methuosis compared with MIPP | –
O=C(/C=C/c1c[nH]c2ccccc12)c1ccccn1 [compound 10, trans-3-(1H-indol-3-yl)-1-(2-pyridinyl)-2-propen-1-one] | – | – | – | relatively ineffective at inducing methuosis compared with MIPP | –
O=C(/C=C/c1c[nH]c2ccccc12)c1cccnc1 [compound 11, trans-3-(1H-indol-3-yl)-1-(3-pyridinyl)-2-propen-1-one] | – | – | – | relatively ineffective at inducing methuosis compared with MIPP | –
COc1ccc2[nH]cc(/C=C/C(=O)c3ccncc3)c2c1 [compound 13, trans-3-(5-methoxy-1H-indol-3-yl)-1-(4-pyridinyl)-2-propen-1-one] | 91.2 ± 0.7 | 18.6 | extensively vacuolated | – | cell viability, in words (U251 glioblastoma cells [1]): only minimally affected
O=C(/C=C/c1c[nH]c2ccc(O)cc12)c1ccncc1 [compound 15, trans-3-(5-hydroxy-1H-indol-3-yl)-1-(4-pyridinyl)-2-propen-1-one] | – | – | – | greatly reduced activity of the compound in all of the assays | –
COc1ccc2[nH]cc(/C=C/C(=O)c3cccnc3)c2c1 [compound 16, trans-3-(5-methoxy-1H-indol-3-yl)-1-(3-pyridinyl)-2-propen-1-one] | – | – | – | Loss of activity | –
COc1ccc2[nH]cc(/C=C/C(=O)c3cnccn3)c2c1 [compound 17, trans-3-(5-methoxy-1H-indol-3-yl)-1-(pyrazine)-2-propen-1-one] | – | – | – | Loss of activity | –
COc1ccc2c(c1)c(/C=C/C(=O)c1ccncc1)cn2C [compound 20, trans-3-(5-methoxy-1-methyl-Indol-3-yl)-1-(4-pyridinyl)-2-propen-1-one] | – | – | – | induced some cytoplasmic vacuolization but had modest effects on cell viability | –
O=C(/C=C/c1c[nH]c2ccc(O)cc12)c1ccncc1 [compound 21, trans-3-(5-hydroxy-1H-indol-3-yl)-1-(4-pyridinyl)-2-propen-1-one] | – | – | – | marked reduction in activity compared to the 5-methoxy compound 19 | –
CCc1[nH]c2ccc(OC)cc2c1/C=C/C(=O)c1ccncc1 [compound 107a, trans-3-(2-ethyl-5-methoxyindol-3-yl)-1-(4-pyridinyl)-2-propen-1-one] | 34.6 ± 1.1 | 3.2 | morphological effects indistinguishable from those observed with the same concentration of MOMIPP | – | cell viability, in words (U251 glioblastoma cells [1]): substantial loss of cell viability; GI50 (U251 glioblastoma cells [2]; U-251, U251, dose-response curves repeated six more times (Table 1 footnote g), read-out: GI50, means (±SD) for all seven determinations): 2.8 µM; growth inhibitory (GI) activity, in words (U251 glioblastoma cells [2]; U251): not statistically different from the MOMIPP
COc1ccc2[nH]c(C)c(/C=C/C(=O)c3cccnc3)c2c1 [meta-MOMIPP, trans-3-(5-methoxy-2-methylindol-3-yl)-1-(3-pyridinyl)-2-propen-1-one] | 96.2 ± 1.3 | 16.9 | did not accumulate vacuoles | – | –
trans-3-[5-((4-carboxyphenyl)-methoxy)-1H-Indol-3-yl)]-1-(4-pyridinyl)-2-propen-1-one [compound 27] | – | – | – | neither compound 26 nor compound 27 induced methuosis | –
trans-3-[5-((4-methylbenzoate)methoxy)-1H-Indol-3-yl)]-1-(4-pyridinyl)-2-propen-1-one [compound 26] | – | – | – | neither compound 26 nor compound 27 induced methuosis | –
